{"source": "paper PMC11206987", "about": "“Investigation of the Efficacy of Benzylidene-3-methyl-2-thioxothiazolidin-4-one Analogs with Antioxidant Activities on the Inhibition of Mushroom and Mammal Tyrosinases” (Molecules, 2024)", "key": {"[1]": {"experiment": "ABTS+ radical scavenging activity assay", "conditions": "100 µM", "experimental": "Second, the ability of BMTTZD analogs to scavenge ABTS^+ radicals was examined. ABTS^+ radicals were obtained via the oxidation of ABTS using potassium persulfate. All samples (Trolox (positive control) and 1–8) were tested at 100 µM.\nThe ability of the BMTTZD analogs to scavenge ABTS^+ radicals was assessed as previously described, with minor modifications. To a 50 mL tube were added 20 mL aqueous K2S2O8 solution (2.45 mM) and 20 mL aqueous ABTS solution (7 mM). The combined mixture was placed at 22 °C in a place without light for 17 h to generate the ABTS^+ radicals. For adequate absorbance control (0.70 ± 0.02 at 734 nm), methanol was added to the combined mixture. Test compounds (Trolox and analogs 1–8; 10 µL in 10% DMSO/90% EtOH [v/v] solution) were mixed with 90 µL ABTS^+ radical solution. After storage in a place without light for 2 min, the well absorbance at 734 nm was acquired for 10 min every 1 min by using a microplate reader (VersaMax®). All test compounds were tested at 100 µM. The activity of the analogs was compared to that of Trolox."}, "mushroom tyrosinase [2]": {"system": "mushroom tyrosinase", "experiment": "Mushroom tyrosinase inhibition assay (dopachrome, 475 nm)", "assay_type": "biochemical", "conditions": "for IC50: mushroom tyrosinase", "experimental": "The ability of the BMTTZD analogs to inhibit mushroom tyrosinase was evaluated in the presence of L-dopa and L-tyrosine as previously described."}, "B16F10 cells": {"system": "B16F10 cells", "experiment": "Cell cytotoxicity test (EZ-Cytox)", "assay_type": "cell-based, murine", "conditions": "2.5–20 µM, 48 and 72 h", "experimental": "Because analogs 1–3 and 5 exerted potent mushroom tyrosinase inhibitory activities, their effects on anti-melanogenic and cellular tyrosinase activities were evaluated in B16F10 murine cells. Prior to examining their cellular activity, their cell viabilities were investigated. Cell viability was evaluated at 48 and 72 h after treatment with five different concentrations of analogs.\nThe effect on B16F10 cytotoxicity was assessed following a previously described method. Cells (1 × 10^4 cells/well of a 96-well plate) were cultivated for 24 h with 5% CO2 at 37 °C. The cells were exposed to the BMTTZD analogs (test concentrations: 20, 10, 5, 2.5, and 0 µM) and cultivated with 5% CO2 at 37 °C for 72 h. An EZ-Cytox solution (10 µL; EZ-500, DoGenBio, Seoul, Republic of Korea) was exposed to each well, and the plate was cultivated for 2 h. Cell viability was calculated from the well absorbance measured at 450 nm utilizing a reader (VersaMax®)."}, "mushroom tyrosinase [3]": {"target": "mushroom tyrosinase (Agaricus bisporus, UniProt C7FF04)", "sequence (C7FF04 1-392)": "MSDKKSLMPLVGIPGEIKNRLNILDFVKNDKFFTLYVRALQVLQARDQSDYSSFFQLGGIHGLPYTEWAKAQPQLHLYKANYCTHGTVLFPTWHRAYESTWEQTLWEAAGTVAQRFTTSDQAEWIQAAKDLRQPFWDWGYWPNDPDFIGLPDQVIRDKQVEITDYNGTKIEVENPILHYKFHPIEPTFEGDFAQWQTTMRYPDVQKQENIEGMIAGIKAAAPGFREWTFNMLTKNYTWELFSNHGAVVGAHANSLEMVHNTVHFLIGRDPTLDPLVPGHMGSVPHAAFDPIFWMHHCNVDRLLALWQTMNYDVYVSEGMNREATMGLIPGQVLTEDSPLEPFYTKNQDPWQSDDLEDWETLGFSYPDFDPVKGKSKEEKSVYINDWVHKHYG", "experiment": "Kinetic study of mushroom tyrosinase inhibition (Lineweaver–Burk and Dixon plots)", "assay_type": "biochemical", "experimental": "The initial rate of dopachrome generation was examined at various BMTTZD analog concentrations (0, 1.5, 3, and 6 µM for analog 1; 0, 2, 4, and 8 µM for analogs 2 and 5; and 0, 0.05, 0.1, and 0.2 µM for 3) with 0.5, 1, 2, 4, 8, or 16 mM L-dopa as substrates using mushroom tyrosinase. Plotting the reciprocal of the dopachrome formation rate against the inverse of the L-dopa concentration produced Lineweaver–Burk plots (Figure 2). Each Lineweaver–Burk plot created four straight lines with different slopes. For analogs 1 and 3, the four straight lines met at a point on the y-axis, whereas for analogs 2 and 5, the four straight lines converged at a point in the second quadrant.\nThe Dixon plots produced lines that met in the second quadrant. The x-coordinate of the convergence position represents the inhibition constant (Ki) of the ligand.\nLineweaver–Burk (L-B) plots were acquired for the kinetic analysis of analogs against mushroom tyrosinase as previously described. In brief, 10 µL of a solution of DMSO and BMTTZD analogs 1–3 or 5 (final concentrations: 0, 1.5, 3, and 6 µM for analog 1; 0, 2, 4, and 8 µM for analogs 2 and 5; and 0, 0.05, 0.1, and 0.2 µM for analog 3) in each well of a 96-well plate was mixed with 20 µL of aqueous mushroom tyrosinase solution (200 units/mL) and 170 µL of an aqueous substrate mixture (various concentrations of L-dopa (final concentrations: 16, 8, 4, 2, 1 and 0.5 mM) and 17.2 mM sodium phosphate buffer (pH 6.5)). During incubation (15 min at 37 °C), the increase in the well absorbance (ΔOD475/min) was calculated at 1 min intervals utilizing a VersaMax® reader."}, "[4]": {"target": "T1, B16F10 cellular tyrosinase (Mus musculus, UniProt P11344)", "T1 construct": "host or cells: B16F10 cells", "T1 sequence (P11344 19-533)": "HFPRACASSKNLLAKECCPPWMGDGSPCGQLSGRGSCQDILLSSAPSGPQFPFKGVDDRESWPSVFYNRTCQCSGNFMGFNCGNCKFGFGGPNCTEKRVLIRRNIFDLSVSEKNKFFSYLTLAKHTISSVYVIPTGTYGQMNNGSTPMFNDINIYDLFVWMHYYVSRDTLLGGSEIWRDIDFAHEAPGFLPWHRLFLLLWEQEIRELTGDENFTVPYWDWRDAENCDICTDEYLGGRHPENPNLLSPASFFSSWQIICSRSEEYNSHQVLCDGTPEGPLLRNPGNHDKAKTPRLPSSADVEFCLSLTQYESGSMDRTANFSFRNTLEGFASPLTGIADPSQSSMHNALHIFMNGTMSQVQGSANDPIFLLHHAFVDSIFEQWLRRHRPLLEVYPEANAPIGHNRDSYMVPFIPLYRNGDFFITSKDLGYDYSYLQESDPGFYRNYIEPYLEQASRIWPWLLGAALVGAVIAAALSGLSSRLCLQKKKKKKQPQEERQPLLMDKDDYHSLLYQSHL", "experiment": "In situ cellular tyrosinase activity assay using L-dopa staining", "assay_type": "cell-based, murine", "conditions": "72 h", "experimental": "Because tyrosinase plays a critical role in melanogenesis, in situ intracellular tyrosinase activity was measured. The in situ intracellular tyrosinase activity was evaluated in B16F10 cells following a previously reported procedure. Stimulators (α-MSH plus IBMX) were exposed to cells to raise tyrosinase activity levels, and analogs 1, 3, and 5 were treated at 20, 10, and 5 µM for 72 h. After fixation and permeabilization using paraformaldehyde and Triton X-100, the cells were stained with L-dopa.\nA 24-well plate containing 1 × 10^3 B16F10 cells/well was cultivated for 24 h under conditions identical to those of the cell culture. […] The cells were then cultivated under conditions identical to those of the cell culture for 72 h. Cultivated cells were fixed for 40 min with paraformaldehyde (4%), washed 2 times with PBS, and permeabilized with Triton X-100 (0.1%) for 2 min. After washing 2 times with PBS, the cells in the 24-well plate were stained with a 2 mM L-dopa aqueous solution (500 µL/well) for 2 h at 37 °C. Staining was photographed and analyzed utilizing a camera connected to a microscope (Motic, Hong Kong)."}}, "note": "Like-named read-outs stand apart in the source and are kept apart here."}
{"smiles": "CN1C(=O)/C(=C/c2ccc(O)cc2O)SC1=S", "note": "[Analog 3, (Z)-5-(2,4-Dihydroxybenzylidene)-3-methyl-2-thioxothiazolidin-4-one]", "values": [{"measurement": "ABTS^+ radical scavenging activity", "setting": "[1]", "result": 95, "unit": "%"}, {"measurement": "tyrosinase inhibition, fold stronger than kojic acid", "setting": "mushroom tyrosinase [2]; substrate L-dopa", "result": 22, "unit": "fold"}, {"measurement": "IC50", "setting": "mushroom tyrosinase [2]; substrate L-dopa, read-out: IC50 (Mean ± SEM, µM) L-Dopa", "result": "1.12 ± 0.06", "unit": "µM"}, {"measurement": "tyrosinase inhibition, times stronger than kojic acid", "setting": "mushroom tyrosinase [2]; substrate L-tyrosine", "result": 220, "unit": "times"}, {"measurement": "IC50", "setting": "mushroom tyrosinase [2]; substrate L-tyrosine, read-out: IC50 (Mean ± SEM, µM) L-Tyrosine", "result": "0.08 ± 0.02", "unit": "µM"}, {"measurement": "cytotoxicity (cell viability)", "setting": "B16F10 cells", "result": "did not exhibit cytotoxicity at ≤20 µM"}, {"measurement": "type of tyrosinase inhibition (Lineweaver–Burk plots)", "setting": "mushroom tyrosinase [3]; substrate L-dopa 0.5–16 mM", "result": "competitive inhibitors"}, {"measurement": "Ki", "setting": "mushroom tyrosinase [3]; substrate L-dopa, read-out: inhibition constant (Ki) from Dixon plots", "result": 47, "unit": "nM"}, {"measurement": "in situ intracellular tyrosinase inhibition compared with kojic acid", "setting": "[4]; 20 µM", "result": "tyrosinase inhibition stronger than did kojic acid"}, {"measurement": "effect on stimulator-raised in situ intracellular tyrosinase activity (L-dopa staining)", "setting": "[4]; analogs 5, 10, 20 µM, kojic acid 20 µM", "result": "concentration-dependently reduced the stimulator-enhanced intracellular tyrosinase inhibition"}]}
